Test results reported in paper PMC3109749 (ACS medicinal chemistry letters, 2011).
Values belong to the compound of their own block, whether it stands above or below them.

How the values were obtained:
[1] = target: T1, serine hydrolase superfamily (FAAH and other FP-reactive serine hydrolases) (Mus musculus, UniProt O08914); assay type: biochemical; details: brain membrane proteome; at both 10 and 100 μM
T1 sequence (O08914 1-579): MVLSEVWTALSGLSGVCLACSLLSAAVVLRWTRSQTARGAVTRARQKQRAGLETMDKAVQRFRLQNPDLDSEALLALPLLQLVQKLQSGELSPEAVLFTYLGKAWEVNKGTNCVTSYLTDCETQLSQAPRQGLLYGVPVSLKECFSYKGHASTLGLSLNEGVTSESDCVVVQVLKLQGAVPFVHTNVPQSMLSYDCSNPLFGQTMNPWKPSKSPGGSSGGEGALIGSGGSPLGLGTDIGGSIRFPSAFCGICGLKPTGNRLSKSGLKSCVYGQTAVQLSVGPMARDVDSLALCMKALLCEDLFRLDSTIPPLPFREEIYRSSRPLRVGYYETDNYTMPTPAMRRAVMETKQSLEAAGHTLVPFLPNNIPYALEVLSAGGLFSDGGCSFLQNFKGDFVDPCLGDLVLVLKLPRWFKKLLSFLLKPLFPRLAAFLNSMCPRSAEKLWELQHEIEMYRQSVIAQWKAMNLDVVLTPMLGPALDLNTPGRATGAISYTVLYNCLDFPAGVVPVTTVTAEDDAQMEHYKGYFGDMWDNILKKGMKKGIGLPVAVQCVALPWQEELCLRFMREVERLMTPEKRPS

[2] = system: serine hydrolase superfamily (FAAH and other FP-reactive serine hydrolases); assay type: biochemical, mouse; details: for off targets in mouse membrane proteome (ABPP): brain membrane proteome, 10 and 100 μM
[3] = system: serine hydrolase superfamily (FAAH and other FP-reactive serine hydrolases); assay type: biochemical, human; details: for off targets in human membrane proteome (ABPP): brain membrane proteome, 10 and 100 μM
[4] = target: T2, serine hydrolase superfamily (FAAH and other FP-reactive serine hydrolases) (Homo sapiens, UniProt O00519); assay type: biochemical; details: brain membrane proteome; at both 10 and 100 μM
T2 sequence (O00519 1-579): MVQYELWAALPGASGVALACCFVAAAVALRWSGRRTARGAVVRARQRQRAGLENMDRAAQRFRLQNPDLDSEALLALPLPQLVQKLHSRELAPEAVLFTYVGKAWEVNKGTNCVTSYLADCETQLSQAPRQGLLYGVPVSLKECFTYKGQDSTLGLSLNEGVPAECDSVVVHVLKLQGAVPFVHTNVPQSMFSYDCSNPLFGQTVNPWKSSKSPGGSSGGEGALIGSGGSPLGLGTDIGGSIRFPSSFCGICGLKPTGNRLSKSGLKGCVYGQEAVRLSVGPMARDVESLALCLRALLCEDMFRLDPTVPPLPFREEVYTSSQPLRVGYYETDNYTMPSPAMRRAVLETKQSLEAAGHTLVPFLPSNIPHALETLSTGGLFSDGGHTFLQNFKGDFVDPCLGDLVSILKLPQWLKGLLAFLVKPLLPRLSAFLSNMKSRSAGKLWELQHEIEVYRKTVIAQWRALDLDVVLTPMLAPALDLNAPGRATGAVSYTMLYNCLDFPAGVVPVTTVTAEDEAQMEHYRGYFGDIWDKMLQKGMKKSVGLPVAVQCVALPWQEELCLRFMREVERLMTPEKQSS

[5] = system: rat model of inflammatory pain (CFA); details: not shown in this paper's figure; cited from earlier work
rat FAAH (rFAAH) = target: T3, rat FAAH (rFAAH) (Rattus norvegicus, UniProt P97612); assay: enzyme-coupled rat FAAH assay, kinact/Ki; assay type: biochemical
T3 sequence (P97612 1-579): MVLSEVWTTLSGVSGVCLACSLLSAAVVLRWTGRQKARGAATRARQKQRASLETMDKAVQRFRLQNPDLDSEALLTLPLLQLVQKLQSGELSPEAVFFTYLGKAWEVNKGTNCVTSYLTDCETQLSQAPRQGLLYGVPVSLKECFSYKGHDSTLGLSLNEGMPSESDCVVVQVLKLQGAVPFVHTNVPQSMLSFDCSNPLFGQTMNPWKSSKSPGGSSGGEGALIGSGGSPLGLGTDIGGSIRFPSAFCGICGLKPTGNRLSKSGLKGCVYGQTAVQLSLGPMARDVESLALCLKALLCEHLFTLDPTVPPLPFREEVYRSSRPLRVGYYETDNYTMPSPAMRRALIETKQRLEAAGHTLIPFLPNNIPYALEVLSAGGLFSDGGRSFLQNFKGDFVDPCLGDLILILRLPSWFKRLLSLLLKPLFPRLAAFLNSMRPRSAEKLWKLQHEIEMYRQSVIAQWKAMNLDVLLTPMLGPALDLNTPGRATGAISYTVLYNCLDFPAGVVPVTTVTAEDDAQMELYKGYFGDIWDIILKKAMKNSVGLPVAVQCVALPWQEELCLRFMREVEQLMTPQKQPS

human FAAH (hFAAH) = target: T4, human FAAH (hFAAH) (Homo sapiens, UniProt O00519); assay: enzyme-coupled human FAAH assay, kinact/Ki; assay type: biochemical
T4 sequence (O00519 32-579 limits assumed): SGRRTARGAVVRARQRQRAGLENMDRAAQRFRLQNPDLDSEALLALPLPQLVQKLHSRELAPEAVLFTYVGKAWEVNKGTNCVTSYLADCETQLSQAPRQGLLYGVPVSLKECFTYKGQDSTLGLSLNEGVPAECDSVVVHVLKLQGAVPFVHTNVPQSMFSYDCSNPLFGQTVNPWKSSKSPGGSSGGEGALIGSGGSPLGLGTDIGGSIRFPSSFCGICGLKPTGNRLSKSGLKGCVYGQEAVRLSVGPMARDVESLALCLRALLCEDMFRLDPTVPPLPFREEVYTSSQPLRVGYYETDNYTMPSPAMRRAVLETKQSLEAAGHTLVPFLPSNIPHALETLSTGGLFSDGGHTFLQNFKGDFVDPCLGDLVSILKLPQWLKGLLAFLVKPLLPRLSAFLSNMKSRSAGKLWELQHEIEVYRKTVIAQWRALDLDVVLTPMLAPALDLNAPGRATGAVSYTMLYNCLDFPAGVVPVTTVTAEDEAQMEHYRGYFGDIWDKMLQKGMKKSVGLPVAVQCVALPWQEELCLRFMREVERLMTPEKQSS

FAAH = target: T5, FAAH (Rattus norvegicus, UniProt P97612); assay: in vivo FAAH activity accompanying efficacy; details: at efficacious doses starting at 0.1 mg/kg; with elevations in anandamide and other fatty acid amides in brain and plasma
T5 sequence (P97612 1-579): T3 sequence (P97612 1-579)

[6] = human liver microsomal stability and binding; assay type: in vitro ADME; details: predicted from in vitro experiments
[7] = soluble proteome of liver, up to 100 μM

Structure (SMILES): NC(=O)c1cccc(-c2cccc(OC(=O)NC3CCCCC3)c2)c1 [Compound 2]
inhibition of FAAH in mouse membrane proteome (ABPP) [1]: completely inhibited FAAH
off targets in mouse membrane proteome (ABPP) [2]: no off targets
off targets among serine hydrolases in mouse soluble liver proteome (ABPP) [2, 7]: multiple off targets
off targets in human membrane proteome (ABPP) [3]: no off targets
off targets among serine hydrolases in human soluble liver proteome (ABPP) [3, 7]: multiple off targets
inhibition of FAAH in human membrane proteome (ABPP) [4]: completely inhibited FAAH

Structure (SMILES): O=C(Nc1cccnc1)N1CCC(Cc2cccc(Oc3ccc(C(F)(F)F)cn3)c2)CC1 [Compound 7]
minimum effective dose (MED), mechanical allodynia [5]: 3 mg/kg

fold more potent (higher kinact/Ki) than 7 for rFAAH (rat FAAH (rFAAH); compared to PF-3845 (7)): ~4 fold
fold more potent (higher kinact/Ki) than 7 for hFAAH (human FAAH (hFAAH); compared to PF-3845 (7)): approximately 2 fold
Structure (SMILES): O=C(Nc1cccnc1)N1CCC(=Cc2cccc(Oc3ccc(C(F)(F)F)cn3)c2)CC1 [Compound 11]

fold less potent than 11 for hFAAH (human FAAH (hFAAH); compared to 11): approximately 19 fold
Structure (SMILES): O=C(Nc1cccnc1)N1CCC/C(=C\c2cccc(Oc3ccc(C(F)(F)F)cn3)c2)C1 [Compound 16]

FAAH potency in words (human FAAH (hFAAH); relative to the parent analogue (9 vs 4, 10 vs 5, 12-17 vs 11)): activity was almost completely abolished
Structure (SMILES): O=C(Nc1cccnc1)N1CCC/C(=C/c2cccc(Oc3ccc(C(F)(F)F)cn3)c2)C1 [Compound 17]

fold higher kinact/Ki value for hFAAH as compared to 11 (human FAAH (hFAAH); compared to 11): 2 fold
Structure (SMILES): O=C(Nc1cnccn1)N1CCC(=Cc2cccc(Oc3ccc(C(F)(F)F)cn3)c2)CC1 [Compound 22]

predicted human blood clearance [6]: 0.6 mL/min/kg
inhibition of FAAH in mouse membrane proteome (ABPP) [1]: completely inhibited FAAH
off targets in mouse membrane proteome (ABPP) [2]: no off targets
off targets in human membrane proteome (ABPP) [3]: no off targets
inhibition of FAAH in human membrane proteome (ABPP) [4]: completely inhibited FAAH
Structure (SMILES): O=C(Nc1cccnn1)N1CCC(=Cc2cccc(Oc3ccc(C(F)(F)F)cn3)c2)CC1 [Compound 23]
inhibition of FAAH activity in vivo (FAAH): near complete inhibition of FAAH activity

fold more potent for rFAAH as compared to 23 (rat FAAH (rFAAH); compared to 23): 2 fold
fold less potent for hFAAH as compared to 23 (human FAAH (hFAAH)): 5 fold
Structure (SMILES): Cc1noc(NC(=O)N2CCC(=Cc3cccc(Oc4ccc(C(F)(F)F)cn4)c3)CC2)c1C [Compound 24]

fold less potent for hFAAH as compared to 23 (human FAAH (hFAAH)): 2 fold
Structure (SMILES): O=C(Nc1cccnn1)N1CCC(=Cc2cccc(Oc3ccc(C(F)(F)F)cc3)c2)CC1 [Compound 26]

additional fold loss in potency on removal of the trifluoromethyl substituent (human FAAH (hFAAH); compared to 26): 10 fold
Structure (SMILES): O=C(Nc1cccnn1)N1CCC(=Cc2cccc(Oc3ccccc3)c2)CC1 [Compound 27]

fold less potent for hFAAH as compared to 23 (human FAAH (hFAAH)): ≤ 2 fold
Structure (SMILES): O=C(Nc1cccnn1)N1CCC(=Cc2cccc(Oc3ccc(C(F)(F)F)nc3)c2)CC1 [Compound 28]
